Results on two molecules are retold here after publication PMC6974726, “Acetylation changes tau interactome to degrade tau in Alzheimer’s disease animal and organoid models” (Aging Cell, 2019).

One test deals with HDAC 1–11. Put plainly: HDAC enzymatic assay panel (IC50 heat maps). It is filed as biochemical. Conditions: HDAC 1–11, recombinant human enzymes. The protocol: Data are expressed as mean ± SEM.
The percentages of enzyme activity (relative to DMSO controls) and IC50 values were calculated using the GraphPad Prism 4 program based on a sigmoidal dose-response equation.

Another test deals with HDAC6. Set-up: method as in Fan, Huang, Liou, & Yang, 2018. Conditions: ref Fan, Huang, Liou, & Yang, 2018; cited from earlier work.

`Cc1[nH]c2ccccc2c1CCNCc1ccc(/C=C/C(=O)NO)cc1` [panobinostat]: the “selectivity among HDAC isoforms (heat maps of IC50 values)” value with HDAC 1–11 is reported as “no selectivity among HDAC isoforms”.

Regarding `O=C(NO)c1ccc(CNc2cccc3cccnc23)cc1` [MPT0G211], in the test on HDAC6, the “acetylation of Hsp90” value is “increased” and the “ubiquitination of phosphorylated tau” value was “increased”.
